Patent US10464922B2, “Metalloenzyme inhibitor compounds” (NQP 1598 LTD., priority 2015, dated 2019)
In brackets after ≈: the same amount, converted by molar mass.

Key:
C. albicans (ATCC 90028) = assay: Minimum inhibitory concentration, in vitro broth microdilution assay (CLSI M27-A2); type: cell-based, Candida albicans; conditions: Candida albicans, ATCC90028, 48 h, ATCC 90028; about 50% growth reduction; 2 days at 36° C.; range tested 8-0.0078 μg/mL; values given as ranges; read-out: Candida albicans MIC
In short: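 Inoculum of 1×10^3 to 1×10^4 CFU/mL in RPMI-1640+MOPS, exposed to 11 two-fold serial compound concentrations at 2 percent final DMSO, per CLSI M27-A2. After 2 days at 36° C, wells scored visually for growth to give MIC; tested in duplicate.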

A. fumigatus = A. fumigatus MIC at 100% growth inhibition (CLSI M38-A2); type: cell-based, Aspergillus fumigatus; conditions: Aspergillus fumigatus, 100% growth inhibition; range tested 8-0.0078 μg/mL; values given as ranges; read-out: Aspergillus fumigatus MIC
Experimental: A. fumigatus MICs were determined at 100% growth inhibition following CLSI guidelines at a concentration range of 8-0.0078 μg/mL (CLSI M38-A2).

[1] = tested on: Hedgehog signaling pathway Gli Reporter-NIH3T3 cells; assay: Gli luciferase reporter assay, Hedgehog signalling pathway activity; type: cell-based; conditions: mShh 1 μg/ml, 27 hours
Experimental: Hedgehog signaling pathway Gli Reporter-NIH3T3 cells were cultured in DMEM medium with 10% Calf serum, 1% Penn-strep, 500 μg/ml of Geneticin.
To perform the Gli luciferase reporter assay, Gli Reporter—NIH3T3 cells were seeded at 25,000 cells per well into white clear-bottom 96-well microplate in 100 μl of growth medium. Cells were incubated at 37° C., and 5% CO2 for overnight. The next day, remove the medium from wells and add 45 μl of diluted inhibitor in assay medium (Opti-MEM Reduced Serum Medium+0.5% calf serum+1% non-essential amino acids+1 mM Na-pyruvate+10 mM HEPES+1% Pen/Strep) per well. Incubate cells at 37° C. in a CO2 incubator for 2 hours. Then add 5 μl of diluted mShh in assay medium to wells (final [mShh]=1 μg/ml). Add 50 μl of assay medium to cell-free control wells. Cells were treated for 27 hours. After treatment, cells were lysed and luciferase assay was performed using ONE-Step luciferase assay system: add 50 μl of One-Step Luciferase reagent per well and rock at room temperature for ˜30 minutes. Luminescence was measured using a luminometer (BioTek Synergy™ 2 microplate reader). Compounds of the present invention are active in blockade of hedgehog signalling.

Structure (SMILES): N#Cc1ccc(N2CCN(c3ccc(-c4ccc(C(F)(F)C(O)(Cn5cnnn5)C5CC5)nc4)cc3)CC2)cc1 (stereo not drawn) [Example 36, 4-(4-(4-(6-(2-cyclopropyl-1,1-difluoro-2-hydroxy-3-(1H-tetrazol-1-yl)propyl)pyridin-3-yl)phenyl)piperazin-1-yl) benzonitrile]
- MIC (C. albicans (ATCC 90028)): 0.0078 to 0.01 µg/mL (≈ 0.0144 to 0.0184 µM)
- MIC (A. fumigatus): > 8 µg/mL
- IC50 [1]: 850 nM

Structure (SMILES): CC[C@@H]([C@H](C)O)n1ncn(-c2ccc(N3CCN(c4ccc(-c5ccc(C(F)(F)C(O)(Cn6cccn6)c6ccc(F)cc6F)nc5)cc4)CC3)cc2)c1=O (stereo partly drawn) [Example 101, 4-(4-(4-(4-(6-(2-(2,4-difluorophenyl)-1,1-difluoro-2-hydroxy-3-(1H-pyrazol-1-yl)propyl)pyridin-3-yl)phenyl)piperazin-1-yl)phenyl)-2-((2S,3S)-2-hydroxypentan-3-yl)-2,4-dihydro-3H-1,2,4-triazol-3-one]
- MIC (C. albicans (ATCC 90028)): 0.1 to 1 µg/mL (≈ 0.132 to 1.32 µM)
- MIC (A. fumigatus): > 8 µg/mL
- IC50 [1]: 217 nM

Structure (SMILES): CC[C@@H]([C@H](C)O)n1ncn(-c2ccc(N3CCN(c4ccc(-c5ccc(C(F)(F)C(O)(Cn6nccn6)c6ccc(F)cc6F)nc5)cc4)CC3)cc2)c1=O (stereo partly drawn) [Example 107, 4-(4-(4-(4-(6-(2-(2,4-difluorophenyl)-1,1-difluoro-2-hydroxy-3-(2H-1,2,3-triazol-2-yl)propyl)pyridin-3-yl)phenyl)piperazin-1-yl)phenyl)-2-((2S,3S)-2-hydroxypentan-3-yl)-2,4-dihydro-3H-1,2,4-triazol-3-one]
- MIC (C. albicans (ATCC 90028)): > 8 µg/mL
- MIC (A. fumigatus): > 8 µg/mL
- IC50 [1]: 270 nM

Structure (SMILES): CC[C@@H]([C@H](C)O)n1ncn(-c2ccc(N3CCN(c4ccc(-c5ccc(C(F)(F)C(O)(Cc6nnn[nH]6)c6ccccc6F)nc5)cc4)CC3)cc2)c1=O (stereo partly drawn) [Example 115, 4-(4-(4-(4-(6-(1,1-difluoro-2-(2-fluorophenyl)-2-hydroxy-3-(1H-tetrazol-5-yl)propyl)pyridin-3-yl)phenyl)piperazin-1-yl)phenyl)-2-((2S,3S)-2-hydroxypentan-3-yl)-2,4-dihydro-3H-1,2,4-triazol-3-one]
- MIC (C. albicans (ATCC 90028)): > 8 µg/mL
- MIC (A. fumigatus): > 8 µg/mL
- IC50 [1]: 510 nM

Structure (SMILES): CC[C@@H]([C@H](C)O)n1ncn(-c2ccc(N3CCN(c4ccc(-c5ccc(C(F)(F)C(O)(Cn6nccn6)c6ccccc6F)nc5)cc4)CC3)cc2)c1=O (stereo partly drawn) [Example 116, 4-(4-(4-(4-(6-(1,1-difluoro-2-(2-fluorophenyl)-2-hydroxy-3-(2H-1,2,3-triazol-2-yl)propyl)pyridin-3-yl)phenyl)piperazin-1-yl)phenyl)-2-((2S,3S)-2-hydroxypentan-3-yl)-2,4-dihydro-3H-1,2,4-triazol-3-one]
- MIC (C. albicans (ATCC 90028)): > 8 µg/mL
- MIC (A. fumigatus): > 8 µg/mL
- IC50 [1]: 160 nM

Structure (SMILES): CC[C@@H]([C@H](C)O)n1ncn(-c2ccc(N3CCN(c4ccc(-c5ccc(C(F)(F)C(O)(Cn6cccn6)c6ccccc6F)nc5)cc4)CC3)cc2)c1=O (stereo partly drawn) [Example 117]
- MIC (C. albicans (ATCC 90028)): > 8 µg/mL
- MIC (A. fumigatus): > 8 µg/mL
- IC50 [1]: 92 nM

Structure (SMILES): CC[C@@H]([C@H](C)O)n1ncn(-c2ccc(N3CCN(c4ccc(-c5ccc(C(F)(F)C(O)(Cn6nccn6)c6cccc(Cl)c6)nc5)cc4)CC3)cc2)c1=O (stereo partly drawn) [Example 125]
- MIC (C. albicans (ATCC 90028)): > 8 µg/mL
- MIC (A. fumigatus): > 8 µg/mL
- IC50 [1]: 92 nM

Structure (SMILES): CC[C@@H]([C@H](C)O)n1ncn(-c2ccc(N3CCN(c4ccc(-c5ccc(C(F)(F)C(O)(Cn6cccn6)c6cccc(Cl)c6)nc5)cc4)CC3)cc2)c1=O (stereo partly drawn) [Example 126, 4-(4-(4-(4-(6-(2-(3-chlorophenyl)-1,1-difluoro-2-hydroxy-3-(1H-pyrazol-1-yl)propyl)pyridin-3-yl)phenyl)piperazin-1-yl)phenyl)-2-((2S,3S)-2-hydroxypentan-3-yl)-2,4-dihydro-3H-1,2,4-triazol-3-one]
- MIC (C. albicans (ATCC 90028)): 1 to 8 µg/mL (≈ 1.32 to 10.6 µM)
- MIC (A. fumigatus): > 8 µg/mL
- IC50 [1]: 190 nM
